Laboratory results reported in US6737383B1, “Herbicidal oxadiazolidines” (priority 1999, dated 2004).

Tests used:
bedstraw = experiment: Test B pre/postemergence bedstraw; type: in vivo, Galium aparine
Summary of the method: (§1)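 Response is a visual 0-to-10 score relative to untreated plants, where 0 means no effect and 10 means complete control, taken twelve to sixteen days after application. Treatments went onto soil at planting and onto foliage of 1- to 4-leaf plants, using a surfactant-containing non-phytotoxic solvent.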

blackgrass = experiment: Test B pre/postemergence blackgrass; type: in vivo, Alopecurus myosuroides
Summary of the method: as §1

surinam grass = experiment: Test B pre/postemergence surinam grass; type: in vivo, Brachiaria decumbens
Summary of the method: as §1

cocklebur = experiment: Test B pre/postemergence cocklebur; type: in vivo, Xanthium strumarium
Summary of the method: as §1

corn = experiment: Test B pre/postemergence corn; type: in vivo, Zea mays
Summary of the method: as §1

crabgrass = experiment: Test B pre/postemergence crabgrass; type: in vivo, Digitaria sanguinalis
Summary of the method: as §1

giant foxtail = experiment: Test B pre/postemergence giant foxtail; type: in vivo, Setaria faberii
Summary of the method: as §1

morningglory = experiment: Test B pre/postemergence morningglory; type: in vivo, Ipomoea hederacea
Summary of the method: as §1

pigweed = experiment: Test B pre/postemergence pigweed; type: in vivo, Amaranthus retroflexus
Summary of the method: as §1

rape = experiment: Test B pre/postemergence rape; type: in vivo, Brassica napus
Summary of the method: as §1

soybean = experiment: Test B pre/postemergence soybean; type: in vivo, Glycine max
Summary of the method: as §1

sugar beet = experiment: Test B pre/postemergence sugar beet; type: in vivo, Beta vulgaris
Summary of the method: as §1

velvetleaf = experiment: Test B pre/postemergence velvetleaf; type: in vivo, Abutilon theophrasti
Summary of the method: as §1

wheat = experiment: Test B pre/postemergence wheat; type: in vivo, Triticum aestivum
Summary of the method: as §1

wild oat = experiment: Test B pre/postemergence wild oat; type: in vivo, Avena fatua
Summary of the method: as §1

purple nutsedge = experiment: Test B pre/postemergence purple nutsedge; type: in vivo, Cyperus rotundus
Summary of the method: as §1

rice = experiment: Test B flood test rice; type: in vivo, Oryza sativa
Summary of the method: (§2)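 Flood test on plants grown to the 2-leaf stage; treated plants kept in greenhouse twelve to sixteen days, then visually rated against controls on a 0 (no effect) to 10 (complete control) scale.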

smallflower flatsedge = experiment: Test B flood test smallflower flatsedge; type: in vivo, Cyperus difformis
Summary of the method: as §2

duck salad = experiment: Test B flood test duck salad; type: in vivo, Heteranthera limosa
Summary of the method: as §2

bamyardgrass = experiment: Test B flood test barnyardgrass; type: in vivo, Echinochloa crus-galli
Summary of the method: as §2

[1] = Preemergence, Rate 62 g/ha, scale of 0 to 10 where 0 is no effect and 10 is complete control
[2] = Preemergence, Rate 125 g/ha, scale 0 to 10, 0 is no effect, 10 is complete control
[3] = Preemergence, Rate 250 g/ha, scale 0 to 10, 0 is no effect, 10 is complete control
[4] = Preemergence, Rate 500 g/ha, scale 0 to 10, 0 is no effect, 10 is complete control
[5] = Rate 62 g/ha, Postemergence, scale 0 to 10 (0 no effect, 10 complete control)
[6] = Postemergence, Rate 125 g/ha, scale 0 to 10, 0 is no effect, 10 is complete control
[7] = Postemergence, Rate 250 g/ha, scale 0 to 10
[8] = Postemergence, Rate 500 g/ha, scale 0 to 10, 0 is no effect, 10 is complete control
[9] = Preemergence, Rate 500 g/ha, scale of 0 to 10 where 0 is no effect and 10 is complete control
[10] = Rate 62 g/ha, flood test species, Pre-emergence, visual evaluation after twelve to sixteen days
[11] = Rate 125 g/ha, under heading Pre-emergence, flood test species, visual evaluation after twelve to sixteen days
[12] = Rate 250 g/ha, Pre-emergence (flood test species), scale 0 to 10, 0 is no effect, 10 is complete control
[13] = Rate 500 g/ha, Pre-emergence section of Table B, 0 to 10 scale (0 no effect, 10 complete control)

CC(C)N(C(=O)n1oc(=O)n(CC2=NCCCO2)c1=O)c1ccccc1 [Compound 494]
Plant response rating, Bedstraw (bedstraw; [1]): 0
Bedstraw plant response rating (bedstraw; [2]): 0
Bedstraw plant response rating (bedstraw; [3]): 0
Bedstraw plant response rating (bedstraw; [4]): 0
Bedstraw plant response rating (bedstraw; [5]): 0
Blackgrass plant response rating (blackgrass; [6]): 0
Blackgrass plant response rating (blackgrass; [7]): 0
Plant response rating, Blackgrass (blackgrass; [8]): 0
Plant response rating, Blackgrass (blackgrass; [1]): 0
Blackgrass plant response rating (blackgrass; [2]): 0
Blackgrass plant response rating (blackgrass; [3]): 0
Blackgrass plant response rating (blackgrass; [9]): 0
Blackgrass plant response rating (blackgrass; [5]): 0
B. signalgrass plant response rating (surinam grass; [6]): 0
B. signalgrass plant response rating (surinam grass; Postemergence, Rate 250 g/ha, scale 0 to 10, 0 no effect, 10 complete control): 0
Plant response rating, B. signalgrass (surinam grass; [8]): 0
Plant response rating, B. signalgrass (surinam grass; [1]): 0
B. signalgrass plant response rating (surinam grass; [2]): 0
B. signalgrass plant response rating (surinam grass; [3]): 0
B. signalgrass plant response rating (surinam grass; [4]): 0
B. signalgrass plant response rating (surinam grass; [5]): 0
Cocklebur plant response rating (cocklebur; [6]): 0
Cocklebur plant response rating (cocklebur; [7]): 0
Plant response rating, Cocklebur (cocklebur; [8]): 0
Plant response rating, Cocklebur (cocklebur; [1]): 0
Cocklebur plant response rating (cocklebur; [2]): 0
Cocklebur plant response rating (cocklebur; [3]): 0
Cocklebur plant response rating (cocklebur; [9]): 0
Cocklebur plant response rating (cocklebur; [5]): 0
Corn plant response rating (corn; [6]): 0
Corn plant response rating (corn; [7]): 0
Plant response rating, Corn (corn; [8]): 0
Plant response rating, Corn (corn; [1]): 0
Corn plant response rating (corn; [2]): 0
Corn plant response rating (corn; [9]): 0
Corn plant response rating (corn; [5]): 0
Crabgrass plant response rating (crabgrass; [6]): 0
Plant response rating, Crabgrass (crabgrass; [1]): 0
Crabgrass plant response rating (crabgrass; [2]): 0
Crabgrass plant response rating (crabgrass; [9]): 0
Crabgrass plant response rating (crabgrass; [5]): 0
Giant foxtail plant response rating (giant foxtail; [6]): 0
Plant response rating, Giant foxtail (giant foxtail; [8]): 0
Plant response rating, Giant foxtail (giant foxtail; [1]): 0
Giant foxtail plant response rating (giant foxtail; [2]): 0
Giant foxtail plant response rating (giant foxtail; [9]): 0
Giant foxtail plant response rating (giant foxtail; [5]): 0
Morningglory plant response rating (morningglory; [6]): 0
Plant response rating, Morningglory (morningglory; [8]): 0
Plant response rating, Morningglory (morningglory; [1]): 0
Morningglory plant response rating (morningglory; [2]): 0
Morningglory plant response rating (morningglory; [9]): 0
Morningglory plant response rating (morningglory; [5]): 0
Redroot pigweed plant response rating (pigweed; [6]): 0
Plant response rating, Redroot pigweed (pigweed; [8]): 0
Plant response rating, Redroot pigweed (pigweed; [1]): 0
Redroot pigweed plant response rating (pigweed; [2]): 0
Redroot pigweed plant response rating (pigweed; [9]): 0
Redroot pigweed plant response rating (pigweed; [5]): 0
Rape plant response rating (rape; [6]): 0
Plant response rating, Rape (rape; [8]): 0
Plant response rating, Rape (rape; [1]): 0
Rape plant response rating (rape; [2]): 0
Rape plant response rating (rape; [9]): 0
Rape plant response rating (rape; [5]): 0
Soybean plant response rating (soybean; [6]): 0
Plant response rating, Soybean (soybean; [8]): 1
Plant response rating, Soybean (soybean; [1]): 0
Soybean plant response rating (soybean; [2]): 1
Soybean plant response rating (soybean; [9]): 1
Soybean plant response rating (soybean; [5]): 0
Sugarbeets plant response rating (sugar beet; [6]): 0
Plant response rating, Sugarbeets (sugar beet; [8]): 0
Plant response rating, Sugarbeets (sugar beet; [1]): 0
Sugarbeets plant response rating (sugar beet; [2]): 0
Sugarbeets plant response rating (sugar beet; [9]): 0
Sugarbeets plant response rating (sugar beet; [5]): 0
Velvetleaf plant response rating (velvetleaf; [6]): 0
Plant response rating, Velvetleaf (velvetleaf; [8]): 0
Plant response rating, Velvetleaf (velvetleaf; [1]): 0
Velvetleaf plant response rating (velvetleaf; [2]): 0
Velvetleaf plant response rating (velvetleaf; [9]): 0
Velvetleaf plant response rating (velvetleaf; [5]): 0
Wheat plant response rating (wheat; [6]): 0
Plant response rating, Wheat (wheat; [8]): 0
Plant response rating, Wheat (wheat; [1]): 0
Wheat plant response rating (wheat; [2]): 0
Wheat plant response rating (wheat; [9]): 0
Wheat plant response rating (wheat; [5]): 0
Wild oats plant response rating (wild oat; [6]): 0
Plant response rating, Wild oats (wild oat; [8]): 0
Plant response rating, Wild oats (wild oat; [1]): 0
Wild oats plant response rating (wild oat; [2]): 0
Wild oats plant response rating (wild oat; [9]): 0
Wild oats plant response rating (wild oat; [5]): 0
Nutsedge plant response rating (purple nutsedge; [6]): 0
Plant response rating, Nutsedge (purple nutsedge; [8]): 0
Plant response rating, Nutsedge (purple nutsedge; [1]): 0
Nutsedge plant response rating (purple nutsedge; [2]): 0
Nutsedge plant response rating (purple nutsedge; [9]): 0
Nutsedge plant response rating (purple nutsedge; [5]): 0
Plant response rating, Rice (0 to 10 scale, 0 is no effect, 10 is complete control) (rice; [10]): 0
Rice plant response rating (0 to 10 scale, 0 is no effect, 10 is complete control) (rice; [11]): 0
Rice plant response rating (rice; [12]): 0
Rice plant response rating (rice; [13]): 0
Plant response rating, S. Flatsedge (0 to 10 scale, 0 is no effect, 10 is complete control) (smallflower flatsedge; [10]): 0
S. Flatsedge plant response rating (0 to 10 scale, 0 is no effect, 10 is complete control) (smallflower flatsedge; [11]): 0
S. Flatsedge plant response rating (smallflower flatsedge; [12]): 0
S. Flatsedge plant response rating (smallflower flatsedge; [13]): 0
Plant response rating, Ducksalad (0 to 10 scale, 0 is no effect, 10 is complete control) (duck salad; [10]): 0
Ducksalad plant response rating (0 to 10 scale, 0 is no effect, 10 is complete control) (duck salad; [11]): 0
Ducksalad plant response rating (duck salad; [12]): 0
Ducksalad plant response rating (duck salad; [13]): 0
Plant response rating, Barnyardgrass (0 to 10 scale, 0 is no effect, 10 is complete control) (bamyardgrass; [10]): 0
Barnyardgrass plant response rating (0 to 10 scale, 0 is no effect, 10 is complete control) (bamyardgrass; [11]): 0
Barnyardgrass plant response rating (bamyardgrass; [12]): 0
Barnyardgrass plant response rating (bamyardgrass; [13]): 0
